# Experimental data as given in patent US10792277B2, “Methods of treatment of fibrosis and cancers” (GENFIT, priority 2013, dated 2020).
# Legend:
# Assay in all cases: Gene expression (quantitative RT-PCR) in TGFβ1-activated hHSC
# Assay type in all cases: cell-based, human
# [1] = tested on: Col1α1 gene expression in hHSC; settings: 3 μM; TGFβ1 1 ng/mL, 24 hours, serum free
# Protocol: (§1) The human primary hepatic stellate cells (hHSC) (ScienCell) were cultured under standard conditions, as described above. For experiments to determine gene expression patterns, hHSC were plated at a density of 1.4×10^5 cells/well into 12-well plates and were cultured overnight. Next day, culture medium was removed, cells were washed with PBS (Invitrogen cat #14190) and serum-free and SteCGS-free medium was added for an additional 16 hours. Cells were treated with compounds in addition to TGFβ1 (1 ng/mL) in a serum-free and SteCGS-free medium for 24 hours.
# Total RNA was isolated using RNeasy® Mini Kit (Qiagen) following manufacturer's instructions. […]
# Quantitative PCR was then carried out using the MyiQ Single-Color Real-Time PCR Detection or the iCycler iQ Multiplex Real-Time PCR Detection System (both systems from Biorad). […]
# (§2) For each gene, the standard curves were drawn by selecting the best points (at least three points) in order to have PCR reaction efficiency close to 100% and a correlation coefficient close to 1. Expression levels were determined using the standard curve equation for both the housekeeping gene and the target gene (taking into account the specific PCR efficiency of each target gene).
# (§3) The induction factor vs TGFβ1 was determined as follow: […]
# [2] = tested on: VEGFR1 gene expression in hHSC; settings: 10 μM; TGFβ1 1 ng/mL, 24 hours, serum free
# Protocol: as §1
# (§4) Total RNA was isolated using RNeasy® Mini Kit (Qiagen) following manufacturer's instructions. 250 ng of total RNA were reverse transcribed in cDNA using M-MLV RT (Moloney Murine Leukemia Virus Reverse Transcriptase) (Invitrogen cat #28025) in presence of RT buffer 1× (Invitrogen), 1 mM DTT (Invitrogen), 0.18 mM dNTPs (Promega), 200 ng pdN6 (Amersham) and 30 U of RNase inhibitor (Promega).
# (§5) Quantitative PCR was then carried out using the MyiQ Single-Color Real-Time PCR Detection or the iCycler iQ Multiplex Real-Time PCR Detection System (both systems from Biorad). Briefly, PCR reactions were performed in 96 Well plates on 5 μL of 5× diluted reverse transcription mix using the iQ SYBR Green Supermix kit. The experimental conditions were: 25 μL of volume reaction, 3 mM of MgCl2, and 0.5 μL each of reverse and forward primers (10 pMol).
# (§6) Expression levels were normalized using the expression of 36B4 gene as reference.
# as §2, §3
# (§7) Thus, lower the induction factor is more the compound of interest inhibits the TGFβ1 activation of hHSC. Experimental results were expressed as mean±standard deviation (SD) of the induction factor.
# (§8) The expression of both profibrotic and cancer associated genes was induced in the primary human hepatic stellate cells (hHSCs) by the treatment with the TGFβ1 (1 ng/mL) in serum free conditions. […] The expression of the genes of interest in both treated and untreated hHSCs was determined by the quantitative RT-PCR technique, following 24 hours of exposure to the TGFβ1.
# (§9) Experimental results were expressed as Emax values that indicate the maximum inhibition, which was obtained at the concentration of 10 μmole/L. Statistical analyses were performed using an one-way ANOVA followed by Bonferroni post-hoc tests, using Sigma Plot 11.0 software.
# [3] = tested on: Col4α1 gene expression in hHSC; settings: 10 μM; TGFβ1 1 ng/mL, 24 hours, serum free
# Protocol: as §1, §4, §5, §6, §2, §3, §7, §8, §9
# [4] = tested on: αSMA gene expression in hHSC; settings: 10 μM; TGFβ1 1 ng/mL, 24 hours, serum free
# Protocol: as §1, §4, §5, §6, §2, §3, §7, §8, §9
# [5] = tested on: HGFR gene expression in hHSC; settings: 10 μM; TGFβ1 1 ng/mL, 24 hours, serum free
# Protocol: as §1, §4, §5, §6, §2, §3, §7, §8, §9
# [6] = tested on: TGFβR1 gene expression in hHSC; settings: 10 μM; TGFβ1 1 ng/mL, 24 hours, serum free
# Protocol: as §1, with “Next day, culture medium was removed, cells were washed with PBS (Invitrogen cat #14190) and serum-free and SteCGS-free medium was added for an additional 16 hours.” left out
# (§10) Total RNA was isolated using RNeasy® Mini Kit (Qiagen) following manufacturer's instructions.
# as §5, §6
# (§11) Expression levels were determined using the standard curve equation for both the housekeeping gene and the target gene (taking into account the specific PCR efficiency of each target gene).
# as §3
# [7] = tested on: FGFR1 gene expression in hHSC; settings: 3 μM; TGFβ1 1 ng/mL, 24 hours, serum free
# Protocol: as §1, with “Next day, culture medium was removed, cells were washed with PBS (Invitrogen cat #14190) and serum-free and SteCGS-free medium was added for an additional 16 hours.” left out
# as §10, §5, §6, §11, §3
compound,measurement,setting,value
CNC(=O)c1cc(Oc2ccc(NC(=O)Nc3ccc(Cl)c(C(F)(F)F)c3)cc2)ccn1 [Sorafenib],"Emax, reduction in Col1α1 gene expression vs hHSC treated with TGFβ1 alone",[1],−93%
same,"Emax, reduction in VEGFR1 gene expression vs hHSC treated with TGFβ1 alone",[2],−95%
same,"Emax, reduction in Col4α1 gene expression vs hHSC treated with TGFβ1 alone",[3],−93%
same,"Emax, reduction in αSMA gene expression vs hHSC treated with TGFβ1 alone",[4],−95%
same,"Emax, reduction in HGFR gene expression vs hHSC treated with TGFβ1 alone",[5],−79%
same,"Emax, reduction in TGFβR1 gene expression vs hHSC treated with TGFβ1 alone",[6],−80%
same,"Emax, reduction in FGFR1 gene expression vs hHSC treated with TGFβ1 alone",[7],−43%
